{"source": "patent US5853731A", "about": "“Thromboxane A2 Receptor antagonism and antioxidant action of cinnamophilin and its derivatives, their pharmaceutical compositions and uses” (National Science Council, priority 1997, dated 1998)", "key": {"cAMP formation": {"tested_on": "cAMP formation", "assay": "cAMP formation caused by arachidonic acid (AA)", "format": "cell-based", "details": "for cAMP: caused by AA"}, "guinea-pig trachea": {"biological_target": "T1, guinea-pig trachea (Cavia porcellus, UniProt A0A286Y4I8)", "T1 construct": "Tracheae from guinea-pigs were dissected out; from tissue; host or cells: guinea-pig trachea", "T1 sequence (A0A286Y4I8 1-347)": "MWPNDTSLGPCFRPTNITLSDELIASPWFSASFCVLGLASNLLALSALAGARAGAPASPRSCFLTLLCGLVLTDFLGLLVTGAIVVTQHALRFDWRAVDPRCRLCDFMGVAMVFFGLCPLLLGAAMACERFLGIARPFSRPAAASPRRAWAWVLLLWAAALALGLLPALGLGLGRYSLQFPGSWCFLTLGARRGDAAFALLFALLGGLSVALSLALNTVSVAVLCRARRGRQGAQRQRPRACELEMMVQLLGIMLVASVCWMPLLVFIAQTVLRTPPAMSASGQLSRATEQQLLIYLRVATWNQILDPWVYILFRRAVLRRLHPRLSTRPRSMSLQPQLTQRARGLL", "assay": "Guinea-pig tracheal contraction caused by U-46619", "format": "cell-based", "details": "for activity at 10 µM / activity at 30 µM / activity at 100 µM: guinea pig, read-out: Contraction (% of maximal contraction); for activity at 10 µM: cinnamophilin 10 μM; for activity at 30 µM: cinnamophilin 30 μM; for activity at 100 µM: cinnamophilin 100 μM", "method": "B. Guinea-pig tracheal contraction\nTracheae from guinea-pigs were dissected out, transferred to a dish containing Krebs solution and cut transversely between the segments of cartilage. Several of these, usually about 5, were tied together so as to form a chain, which was then mounted in Krebs solution at 37° C., gassed with 95% O2 plus 5% CO2. One end of the chain was attached to a fixed pin in the bath and the other to a transducer connected to a Grass polygraph. Resting tension of each tissue was set at 1 g, Tracheae were allowed to equilibrate for at least 1 hr and washed-periodically.\nCumulative concentration-response curves were obtained by application of various concentrations of spasmogens for 15-18 min at 3 minutes intervals. Tracheal rings were pre-incubated with cinnamophilin for 15 min, then various concentrations of spasmogens were added for 15-18 min at 3 min intervals. Results were expressed as percentage of the maximal control response for each agonist."}, "rat thoracic aorta": {"biological_target": "T2, rat thoracic aorta (Rattus norvegicus, UniProt P34978)", "T2 construct": "The thoracic aorta was isolated and excess fat and connective tissue were removed; from tissue; host or cells: thoracic aorta rings of Wistar rats", "T2 sequence (P34978 1-341)": "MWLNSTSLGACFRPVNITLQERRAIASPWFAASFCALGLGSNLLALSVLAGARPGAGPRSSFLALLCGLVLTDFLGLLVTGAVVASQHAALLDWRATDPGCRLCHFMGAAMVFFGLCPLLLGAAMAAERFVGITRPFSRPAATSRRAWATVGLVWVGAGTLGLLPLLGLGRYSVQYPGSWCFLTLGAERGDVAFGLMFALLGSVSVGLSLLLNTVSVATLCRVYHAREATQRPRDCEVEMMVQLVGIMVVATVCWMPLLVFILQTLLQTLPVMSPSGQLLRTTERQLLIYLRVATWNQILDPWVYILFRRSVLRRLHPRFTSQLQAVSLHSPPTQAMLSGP", "assay": "Rat aortic contraction caused by U-46619", "format": "cell-based, Wistar rat", "details": "for activity at 0.3 µM / activity at 1 µM / activity at 3 µM / activity at 10 µM: rat, read-out: Contraction (% of maximal contraction); for activity at 0.3 µM: cinnamophilin 0.3 μM; for activity at 1 µM: cinnamophilin 1 μM; for activity at 3 µM: cinnamophilin 3 μM; for activity at 10 µM: cinnamophilin 10 μM", "method": "A. Rat Aortic Contraction\nWistar rats of either sex weighing 250 g to 300 g were killed by a blow to the head. The thoracic aorta was isolated and excess fat and connective tissue were removed. Vessels were cut into rings of about 5 mm in length and mounted in organ baths containing 5 ml Krebs solution of the following composition (mM): NaCl (118.4), KCl (4.7), CaCl (1.9), MgSO4 (1.2), KH2 PO4 (1.2), NaHCO3 (25.0) and glucose (11.7). The tissue bath solution was maintained at 37° C. and gassed with 95% O2 :5% CO2 mixture. Two stainless steel hooks were inserted into the aortic lumen, one was fixed while the other was connected to a transducer. Aortae were equilibrated in the medium for 90 min with three changes of Krebs solution and maintained under an optimal tension of 1 g before specific experimental protocols were initiated.\nContraction was recorded isometrically via a force-displacement transducer connected to a Grass polygraph. Aortae were allowed to preincubate for 15 minutes with cinnamophilin before generating the cumulative concentration-response curve with each agonist for 15-30 min at 3 min intervals. Results are expressed as a percentage of the maximal control response for each agonist."}}, "note": "Like-named read-outs stand apart in the source and are kept apart here."}
{"smiles": "COc1cc(CC(C)C(C)C(=O)c2ccc(O)c(OC)c2)ccc1O", "note": "(stereo not drawn) [Compound 1, cinnamophilin]", "values": [{"measurement": "cAMP level", "setting": "cAMP formation; 0.03-10 μM, AA", "value": "increase PGE2 and cAMP levels"}, {"measurement": "cAMP", "setting": "cAMP formation; conc 1 μM", "value": "22 ± 3", "unit": "pmol/mL"}, {"measurement": "cAMP", "setting": "cAMP formation; conc 3 μM", "value": "29 ± 3", "unit": "pmol/mL"}, {"measurement": "cAMP", "setting": "cAMP formation; conc 10 μM", "value": "35 ± 2", "unit": "pmol/mL"}, {"measurement": "Kb", "setting": "guinea-pig trachea; against U-46619, read-out: pA2, guinea-pig tracheal contraction induced by U-46619 (converted)", "value": 6.31, "unit": "µM"}, {"measurement": "activity at 10 µM", "setting": "guinea-pig trachea; U-46619 0.01 μM", "value": "5.7 ± 2", "unit": "%"}, {"measurement": "activity at 10 µM", "setting": "guinea-pig trachea; U-46619 0.02 μM", "value": "17.1 ± 4.5", "unit": "%"}, {"measurement": "activity at 10 µM", "setting": "guinea-pig trachea; U-46619 0.05 μM", "value": "35 ± 5", "unit": "%"}, {"measurement": "activity at 10 µM", "setting": "guinea-pig trachea; U-46619 0.1 μM", "value": "52 ± 5", "unit": "%"}, {"measurement": "activity at 10 µM", "setting": "guinea-pig trachea; U-46619 0.2 μM", "value": "70 ± 6", "unit": "%"}, {"measurement": "activity at 10 µM", "setting": "guinea-pig trachea; U-46619 0.5 μM", "value": "79 ± 4", "unit": "%"}, {"measurement": "activity at 10 µM", "setting": "guinea-pig trachea; U-46619 1 μM", "value": "85 ± 5", "unit": "%"}, {"measurement": "activity at 10 µM", "setting": "guinea-pig trachea; U-46619 2 μM", "value": "90 ± 4", "unit": "%"}, {"measurement": "activity at 10 µM", "setting": "guinea-pig trachea; U-46619 5 μM", "value": "94 ± 4", "unit": "%"}, {"measurement": "activity at 30 µM", "setting": "guinea-pig trachea; U-46619 0.02 μM", "value": 3, "unit": "%"}, {"measurement": "activity at 30 µM", "setting": "guinea-pig trachea; U-46619 0.05 μM", "value": "11 ± 3", "unit": "%"}, {"measurement": "activity at 30 µM", "setting": "guinea-pig trachea; U-46619 0.1 μM", "value": "22 ± 4", "unit": "%"}, {"measurement": "activity at 30 µM", "setting": "guinea-pig trachea; U-46619 0.2 μM", "value": "35 ± 4", "unit": "%"}, {"measurement": "activity at 30 µM", "setting": "guinea-pig trachea; U-46619 0.5 μM", "value": "52 ± 5", "unit": "%"}, {"measurement": "activity at 30 µM", "setting": "guinea-pig trachea; U-46619 1 μM", "value": "67 ± 4", "unit": "%"}, {"measurement": "activity at 30 µM", "setting": "guinea-pig trachea; U-46619 2 μM", "value": "80 ± 4.5", "unit": "%"}, {"measurement": "activity at 30 µM", "setting": "guinea-pig trachea; U-46619 5 μM", "value": "88 ± 5", "unit": "%"}, {"measurement": "activity at 30 µM", "setting": "guinea-pig trachea; U-46619 10 μM", "value": "92 ± 5", "unit": "%"}, {"measurement": "activity at 100 µM", "setting": "guinea-pig trachea; U-46619 0.05 μM", "value": 0, "unit": "%"}, {"measurement": "activity at 100 µM", "setting": "guinea-pig trachea; U-46619 0.1 μM", "value": "5 ± 3", "unit": "%"}, {"measurement": "activity at 100 µM", "setting": "guinea-pig trachea; U-46619 0.2 μM", "value": "15 ± 3", "unit": "%"}, {"measurement": "activity at 100 µM", "setting": "guinea-pig trachea; U-46619 0.5 μM", "value": "27 ± 4.5", "unit": "%"}, {"measurement": "activity at 100 µM", "setting": "guinea-pig trachea; U-46619 1 μM", "value": "41 ± 4", "unit": "%"}, {"measurement": "activity at 100 µM", "setting": "guinea-pig trachea; U-46619 2 μM", "value": "55 ± 5.7", "unit": "%"}, {"measurement": "activity at 100 µM", "setting": "guinea-pig trachea; U-46619 5 μM", "value": "68 ± 5.7", "unit": "%"}, {"measurement": "activity at 100 µM", "setting": "guinea-pig trachea; U-46619 10 μM", "value": "78 ± 3", "unit": "%"}, {"measurement": "Kb", "setting": "rat thoracic aorta; against U-46619, 0.5% DMSO as control, read-out: pA2, rat aortic contraction induced by U-46619 (converted)", "value": 0.0501, "unit": "µM"}, {"measurement": "activity at 0.3 µM", "setting": "rat thoracic aorta; U-46619 0.005 μM", "value": 0, "unit": "%"}, {"measurement": "activity at 0.3 µM", "setting": "rat thoracic aorta; U-46619 0.01 μM", "value": "8 ± 2", "unit": "%"}, {"measurement": "activity at 0.3 µM", "setting": "rat thoracic aorta; U-46619 0.02 μM", "value": "16 ± 4.9", "unit": "%"}, {"measurement": "activity at 0.3 µM", "setting": "rat thoracic aorta; U-46619 0.05 μM", "value": "35 ± 2", "unit": "%"}, {"measurement": "activity at 0.3 µM", "setting": "rat thoracic aorta; U-46619 0.1 μM", "value": "52 ± 3", "unit": "%"}, {"measurement": "activity at 0.3 µM", "setting": "rat thoracic aorta; U-46619 0.2 μM", "value": "65 ± 4", "unit": "%"}, {"measurement": "activity at 0.3 µM", "setting": "rat thoracic aorta; U-46619 0.5 μM", "value": "79 ± 2", "unit": "%"}, {"measurement": "activity at 0.3 µM", "setting": "rat thoracic aorta; U-46619 1 μM", "value": "85 ± 4", "unit": "%"}, {"measurement": "activity at 0.3 µM", "setting": "rat thoracic aorta; U-46619 2 μM", "value": "92 ± 4", "unit": "%"}, {"measurement": "activity at 1 µM", "setting": "rat thoracic aorta; U-46619 0.02 μM", "value": 3, "unit": "%"}, {"measurement": "activity at 1 µM", "setting": "rat thoracic aorta; U-46619 0.05 μM", "value": "11 ± 2", "unit": "%"}, {"measurement": "activity at 1 µM", "setting": "rat thoracic aorta; U-46619 0.1 μM", "value": "22 ± 3", "unit": "%"}, {"measurement": "activity at 1 µM", "setting": "rat thoracic aorta; U-46619 0.2 μM", "value": "35 ± 3.2", "unit": "%"}, {"measurement": "activity at 1 µM", "setting": "rat thoracic aorta; U-46619 0.5 μM", "value": "53 ± 3.1", "unit": "%"}, {"measurement": "activity at 1 µM", "setting": "rat thoracic aorta; U-46619 1 μM", "value": "55 ± 4", "unit": "%"}, {"measurement": "activity at 1 µM", "setting": "rat thoracic aorta; U-46619 2 μM", "value": "81 ± 4", "unit": "%"}, {"measurement": "activity at 1 µM", "setting": "rat thoracic aorta; U-46619 5 μM", "value": "88 ± 3", "unit": "%"}, {"measurement": "activity at 3 µM", "setting": "rat thoracic aorta; U-46619 0.05 μM", "value": 0, "unit": "%"}, {"measurement": "activity at 3 µM", "setting": "rat thoracic aorta; U-46619 0.1 μM", "value": "8 ± 3.7", "unit": "%"}, {"measurement": "activity at 3 µM", "setting": "rat thoracic aorta; U-46619 0.2 μM", "value": "15 ± 4.3", "unit": "%"}, {"measurement": "activity at 3 µM", "setting": "rat thoracic aorta; U-46619 0.5 μM", "value": "34 ± 5.6", "unit": "%"}, {"measurement": "activity at 3 µM", "setting": "rat thoracic aorta; U-46619 1 μM", "value": "50 ± 5.6", "unit": "%"}, {"measurement": "activity at 3 µM", "setting": "rat thoracic aorta; U-46619 2 μM", "value": "65 ± 5", "unit": "%"}, {"measurement": "activity at 3 µM", "setting": "rat thoracic aorta; U-46619 5 μM", "value": "81 ± 3", "unit": "%"}, {"measurement": "activity at 3 µM", "setting": "rat thoracic aorta; U-46619 10 μM", "value": "90 ± 3", "unit": "%"}, {"measurement": "activity at 10 µM", "setting": "rat thoracic aorta; U-46619 0.2 μM", "value": "6 ± 4.3", "unit": "%"}, {"measurement": "activity at 10 µM", "setting": "rat thoracic aorta; U-46619 0.5 μM", "value": "15 ± 3.9", "unit": "%"}, {"measurement": "activity at 10 µM", "setting": "rat thoracic aorta; U-46619 1 μM", "value": "31 ± 3.8", "unit": "%"}, {"measurement": "activity at 10 µM", "setting": "rat thoracic aorta; U-46619 2 μM", "value": "45 ± 3", "unit": "%"}, {"measurement": "activity at 10 µM", "setting": "rat thoracic aorta; U-46619 5 μM", "value": "65 ± 5", "unit": "%"}, {"measurement": "activity at 10 µM", "setting": "rat thoracic aorta; U-46619 10 μM", "value": "86 ± 4", "unit": "%"}]}
